Measurements taken from patent US20010034342A1, “Substituted urea and isothiourea derivatives as no synthase inhibitors” (priority 1993, published 2001).

Columns and labels:
[1] = target: T1, human placental NOS (Homo sapiens, UniProt P29474); assay: Assay for human placental NOS (citrulline formation); format: biochemical; details: concentration not given
T1 construct: Purification of NOS from human placenta; from tissue; host or cells: fresh human placenta

[2] = target: T2, inducible human NOS (Homo sapiens, UniProt P35228); assay: Assay for inducible human NOS (citrulline formation), enzyme from cytokine-induced DLD-1 cells; format: biochemical; details: concentration not given
T2 construct: Purification of NOS cytokine-induced human colorectal adenocarcinoma DLD-1 cells; endogenous in cells; host or cells: DLD-1 (ATCC No. CCL 221), induced with IFN-gamma, IL-6, TNF and IL-1beta

[3] = target: T3, Human brain NOS (Homo sapiens, UniProt P29475); assay: Human brain NOS enzyme activity assay; format: biochemical
T3 construct: Purification of NOS from human brain; from tissue; host or cells: frozen human brain
T3 sequence (P29475 whole entry): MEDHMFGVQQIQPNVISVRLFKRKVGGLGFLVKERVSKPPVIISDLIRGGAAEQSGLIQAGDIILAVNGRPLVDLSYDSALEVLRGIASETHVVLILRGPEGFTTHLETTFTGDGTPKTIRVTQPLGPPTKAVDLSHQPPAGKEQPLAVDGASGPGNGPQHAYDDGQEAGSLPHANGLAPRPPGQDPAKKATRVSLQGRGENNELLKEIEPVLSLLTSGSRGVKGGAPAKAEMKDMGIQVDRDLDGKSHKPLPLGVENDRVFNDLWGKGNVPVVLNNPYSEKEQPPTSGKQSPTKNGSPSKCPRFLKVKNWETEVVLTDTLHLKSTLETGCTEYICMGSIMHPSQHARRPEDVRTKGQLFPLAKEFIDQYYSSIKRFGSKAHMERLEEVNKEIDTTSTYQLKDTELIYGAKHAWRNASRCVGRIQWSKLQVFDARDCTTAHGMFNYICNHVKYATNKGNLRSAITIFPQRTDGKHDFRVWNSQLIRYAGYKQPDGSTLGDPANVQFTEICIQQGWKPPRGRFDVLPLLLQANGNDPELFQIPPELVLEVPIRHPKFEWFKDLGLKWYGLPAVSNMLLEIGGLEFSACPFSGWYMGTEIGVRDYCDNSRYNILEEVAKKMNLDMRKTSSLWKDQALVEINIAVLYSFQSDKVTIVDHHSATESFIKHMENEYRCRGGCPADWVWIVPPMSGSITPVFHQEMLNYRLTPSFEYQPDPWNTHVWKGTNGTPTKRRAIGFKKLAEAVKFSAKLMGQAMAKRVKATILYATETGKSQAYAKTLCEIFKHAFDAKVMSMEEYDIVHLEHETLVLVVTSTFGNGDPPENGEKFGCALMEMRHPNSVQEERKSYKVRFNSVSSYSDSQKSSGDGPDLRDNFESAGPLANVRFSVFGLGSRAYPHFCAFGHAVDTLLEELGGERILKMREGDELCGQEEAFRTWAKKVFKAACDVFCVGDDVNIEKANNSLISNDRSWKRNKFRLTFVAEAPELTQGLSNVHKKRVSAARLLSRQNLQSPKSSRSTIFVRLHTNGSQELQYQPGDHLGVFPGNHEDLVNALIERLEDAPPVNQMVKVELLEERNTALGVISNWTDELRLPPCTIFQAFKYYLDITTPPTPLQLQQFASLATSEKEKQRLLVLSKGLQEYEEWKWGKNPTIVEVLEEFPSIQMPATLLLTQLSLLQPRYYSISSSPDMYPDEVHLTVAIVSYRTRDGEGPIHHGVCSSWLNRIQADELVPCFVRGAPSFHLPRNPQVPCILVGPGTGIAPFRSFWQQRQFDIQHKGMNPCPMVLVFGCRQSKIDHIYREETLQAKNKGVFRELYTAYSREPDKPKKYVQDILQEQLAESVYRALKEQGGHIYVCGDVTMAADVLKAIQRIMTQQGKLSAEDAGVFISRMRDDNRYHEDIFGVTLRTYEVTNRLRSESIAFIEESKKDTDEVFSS
Description: The mixture was centrifuged at 13,000 g for 1 hour and the supernatant was removed (about 2050 ml). […] The precipitate was pelleted at 13,000 g for 30 minutes and the pellet was resuspended in −400 mls of buffer A with 4 μM tetrahydrobiopterin, 1 μm FAD (Sigma), 1 μM FMN (Sigma). The solution was centrifuged at 41,000 g for 60 minutes. The supernatant was removed, frozen by pouring into liquid nitrogen, and stored overnight at −70° C. The mixture was thawed and passed through a 2′,5′ ADP-agarose column (0.4 g swelled in buffer A) at 4 ml/min. The column was washed with 100 ml buffer A, 200 ml buffer A with 500 mM NaCl, 100 ml Buffer A, then 30 ml buffer A with 5 mM NADPH. […] To the enzyme was added tetrahydrobiopterin to 10 μM, FAD and FMN to 1 μM, and tween to 0.1%. This solution was concentrated by centriprep-30 to a volume of approximately 500 μl. Human NOS was prepared completely analogously except the calmodulin-agarose column was not used.

T2 sequence (P35228 whole entry): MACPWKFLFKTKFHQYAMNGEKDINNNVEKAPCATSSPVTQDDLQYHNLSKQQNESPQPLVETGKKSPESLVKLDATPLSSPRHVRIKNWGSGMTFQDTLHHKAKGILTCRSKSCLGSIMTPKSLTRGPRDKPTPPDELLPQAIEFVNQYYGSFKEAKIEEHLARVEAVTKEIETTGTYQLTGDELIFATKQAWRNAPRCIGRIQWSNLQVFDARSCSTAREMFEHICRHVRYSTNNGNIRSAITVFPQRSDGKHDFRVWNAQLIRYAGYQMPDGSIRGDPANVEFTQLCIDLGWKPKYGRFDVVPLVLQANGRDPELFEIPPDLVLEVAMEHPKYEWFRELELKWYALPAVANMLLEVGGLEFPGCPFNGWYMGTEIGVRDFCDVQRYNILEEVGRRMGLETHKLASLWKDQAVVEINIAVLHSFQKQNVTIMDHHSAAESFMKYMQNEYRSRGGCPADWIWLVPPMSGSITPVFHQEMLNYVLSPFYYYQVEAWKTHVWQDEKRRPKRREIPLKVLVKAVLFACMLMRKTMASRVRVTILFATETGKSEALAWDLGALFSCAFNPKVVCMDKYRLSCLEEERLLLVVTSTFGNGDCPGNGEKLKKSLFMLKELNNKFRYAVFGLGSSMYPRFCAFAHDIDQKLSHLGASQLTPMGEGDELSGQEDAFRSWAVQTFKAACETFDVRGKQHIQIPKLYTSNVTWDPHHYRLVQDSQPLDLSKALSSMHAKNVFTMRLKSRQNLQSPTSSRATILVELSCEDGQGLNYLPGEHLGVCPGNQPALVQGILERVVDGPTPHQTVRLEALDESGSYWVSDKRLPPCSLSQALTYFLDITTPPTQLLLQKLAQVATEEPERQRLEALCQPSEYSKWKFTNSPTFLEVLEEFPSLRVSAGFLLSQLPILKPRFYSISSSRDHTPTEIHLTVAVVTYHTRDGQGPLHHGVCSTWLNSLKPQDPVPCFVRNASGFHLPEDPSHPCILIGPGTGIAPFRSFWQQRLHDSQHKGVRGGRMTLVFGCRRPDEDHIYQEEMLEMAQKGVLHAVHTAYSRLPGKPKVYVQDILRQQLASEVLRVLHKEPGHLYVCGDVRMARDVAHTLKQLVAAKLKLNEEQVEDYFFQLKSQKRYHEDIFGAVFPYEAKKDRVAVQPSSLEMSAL
T1 sequence (P29474 2-1203): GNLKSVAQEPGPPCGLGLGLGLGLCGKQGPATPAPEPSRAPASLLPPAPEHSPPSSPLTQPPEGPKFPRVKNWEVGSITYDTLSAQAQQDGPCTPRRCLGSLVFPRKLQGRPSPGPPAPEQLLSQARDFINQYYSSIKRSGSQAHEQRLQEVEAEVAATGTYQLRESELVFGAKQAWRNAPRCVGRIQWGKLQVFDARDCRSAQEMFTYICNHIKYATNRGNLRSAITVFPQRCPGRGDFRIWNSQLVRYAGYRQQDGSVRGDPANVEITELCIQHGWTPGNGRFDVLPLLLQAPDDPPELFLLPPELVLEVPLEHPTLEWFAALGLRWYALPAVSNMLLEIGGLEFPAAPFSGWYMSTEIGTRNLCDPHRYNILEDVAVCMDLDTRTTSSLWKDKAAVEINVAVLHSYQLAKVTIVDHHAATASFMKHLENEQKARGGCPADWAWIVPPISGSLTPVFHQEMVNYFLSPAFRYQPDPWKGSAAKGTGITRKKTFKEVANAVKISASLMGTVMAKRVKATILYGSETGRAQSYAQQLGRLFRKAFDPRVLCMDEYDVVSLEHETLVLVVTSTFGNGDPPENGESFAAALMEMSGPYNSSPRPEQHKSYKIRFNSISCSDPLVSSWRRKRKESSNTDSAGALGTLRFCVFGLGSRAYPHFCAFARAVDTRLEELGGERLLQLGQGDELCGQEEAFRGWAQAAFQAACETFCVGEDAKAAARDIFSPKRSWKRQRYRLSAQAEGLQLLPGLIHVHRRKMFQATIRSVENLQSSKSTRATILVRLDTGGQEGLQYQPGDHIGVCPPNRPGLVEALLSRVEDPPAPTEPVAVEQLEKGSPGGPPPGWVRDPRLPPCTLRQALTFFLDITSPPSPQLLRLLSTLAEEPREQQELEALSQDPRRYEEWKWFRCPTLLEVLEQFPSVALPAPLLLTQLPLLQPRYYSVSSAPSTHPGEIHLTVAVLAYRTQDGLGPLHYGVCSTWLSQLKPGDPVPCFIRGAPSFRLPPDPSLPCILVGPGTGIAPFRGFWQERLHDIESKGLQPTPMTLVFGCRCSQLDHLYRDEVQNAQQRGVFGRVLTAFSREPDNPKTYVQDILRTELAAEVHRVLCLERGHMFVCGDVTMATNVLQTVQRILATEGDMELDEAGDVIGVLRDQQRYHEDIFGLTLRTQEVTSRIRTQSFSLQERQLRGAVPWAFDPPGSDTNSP

Human Placental, percent (inhibition), concentration not given [1] [%] | Human Inducible, percent (inhibition), concentration not given [2] [%] | melting point [°C] | inhibition at 25 µM ([3]; @ 25 μM inhibitor, read-out: Human Brain, percent (inhibition) @ 25 μM) [%] | Human Brain, percent (inhibition), concentration not given ([3]; concentration not given) [%] | Structure (SMILES)
0 | 0 | 71 to 72 | 11 | – | N=C(Nc1ccc(C(F)(F)F)cc1)SCc1ccccc1 [Example 2A, S-Benzyl-N-[4-(trifluoromethyl)phenyl]isothiourea]
14 | 4 | 121 to 123 | – | 24 | COC(=N)Nc1ccc(C(F)(F)F)cc1 [Example 3, O-Methyl-N-(4-(trifluoromethyl)phenyl)isourea]
